According to PMC5428509, “Irreversible inhibition of BTK kinase by a novel highly selective inhibitor CHMFL-BTK-11 suppresses inflammatory response in rheumatoid arthritis model” (Scientific Reports, 2017):

Columns and labels:
Test in all cases: biochemical
Parameters in all cases: KinomeScan competition binding panel (DiscoveRx), percent of control at 1 uM
Settings in all cases: read-out: Percent Control
[1] = target: T1, ABL1(T315I)-nonphosphorylated (Homo sapiens, UniProt P00519, T315I)
T1 construct: nonphosphorylated
In short: (§1)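 Selectivity profiled across 456 kinases/mutants by KinomeScan binding technology.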

ABL1-nonphosphorylated = target: T2, ABL1-nonphosphorylated (Homo sapiens, UniProt P00519)
T2 construct: nonphosphorylated
In short: as §1

AURKA = AURKA (Homo sapiens, UniProt O14965)
In short: as §1

BRAF = BRAF (Homo sapiens, UniProt P15056)
In short: as §1

CDK2 = CDK2 (Homo sapiens, UniProt P24941)
In short: as §1

CDK3 = CDK3 (Homo sapiens, UniProt Q00526)
In short: as §1

CSNK1A1 = CSNK1A1 (Homo sapiens, UniProt P48729)
In short: as §1

CSNK1G2 = CSNK1G2 (Homo sapiens, UniProt P78368)
In short: as §1

DAPK1 = DAPK1 (Homo sapiens, UniProt P53355)
In short: as §1

EGFR(L861Q) = EGFR(L861Q) (Homo sapiens, UniProt P00533, L861Q)
In short: as §1

GRK1 = GRK1 (Homo sapiens, UniProt Q15835)
In short: as §1

JNK1 = target: T3, JNK1 (Homo sapiens, UniProt P45983)
T3 construct: gene MAPK8
In short: as §1

LATS2 = LATS2 (Homo sapiens, UniProt Q9NRM7)
In short: as §1

LTK = LTK (Homo sapiens, UniProt P29376)
In short: as §1

MRCKA = target: T4, MRCKA (Homo sapiens, UniProt Q5VT25)
T4 construct: gene CDC42BPA
In short: as §1

MYO3B = MYO3B (Homo sapiens, UniProt Q8WXR4)
In short: as §1

PIK3CA = PIK3CA (Homo sapiens, UniProt P42336)
In short: as §1

PIK3CA(E545A) = PIK3CA(E545A) (Homo sapiens, UniProt P42336, E545A)
In short: as §1

PIP5K1C = PIP5K1C (Homo sapiens, UniProt O60331)
In short: as §1

ROCK2 = ROCK2 (Homo sapiens, UniProt O75116)
In short: as §1

[2] = target: T5, RSK1(Kin.Dom.1-N-terminal) (Homo sapiens, UniProt Q15418)
T5 construct: gene RPS6KA1; Kin.Dom.1-N-terminal
In short: as §1

SBK1 = SBK1 (Homo sapiens, UniProt Q52WX2)
In short: as §1

SGK2 = SGK2 (Homo sapiens, UniProt Q9HBY8)
In short: as §1

SgK110 = target: T6, SgK110 (Homo sapiens, UniProt P0C264)
T6 construct: gene SBK3
In short: as §1

TAOK1 = TAOK1 (Homo sapiens, UniProt Q7L7X3)
In short: as §1

T3 sequence (P45983 whole entry): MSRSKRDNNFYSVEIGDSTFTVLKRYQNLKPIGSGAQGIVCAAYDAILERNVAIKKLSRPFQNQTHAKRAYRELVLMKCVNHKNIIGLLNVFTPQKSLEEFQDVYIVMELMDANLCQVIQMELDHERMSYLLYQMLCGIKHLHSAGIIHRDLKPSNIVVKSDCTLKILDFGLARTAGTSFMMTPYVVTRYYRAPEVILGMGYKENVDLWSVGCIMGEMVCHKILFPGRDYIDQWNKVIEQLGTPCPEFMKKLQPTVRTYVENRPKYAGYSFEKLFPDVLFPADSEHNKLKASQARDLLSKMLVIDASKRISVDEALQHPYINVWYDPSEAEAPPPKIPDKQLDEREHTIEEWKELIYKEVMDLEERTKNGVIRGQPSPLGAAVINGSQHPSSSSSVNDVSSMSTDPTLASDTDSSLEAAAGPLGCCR
T5 sequence (Q15418 whole entry): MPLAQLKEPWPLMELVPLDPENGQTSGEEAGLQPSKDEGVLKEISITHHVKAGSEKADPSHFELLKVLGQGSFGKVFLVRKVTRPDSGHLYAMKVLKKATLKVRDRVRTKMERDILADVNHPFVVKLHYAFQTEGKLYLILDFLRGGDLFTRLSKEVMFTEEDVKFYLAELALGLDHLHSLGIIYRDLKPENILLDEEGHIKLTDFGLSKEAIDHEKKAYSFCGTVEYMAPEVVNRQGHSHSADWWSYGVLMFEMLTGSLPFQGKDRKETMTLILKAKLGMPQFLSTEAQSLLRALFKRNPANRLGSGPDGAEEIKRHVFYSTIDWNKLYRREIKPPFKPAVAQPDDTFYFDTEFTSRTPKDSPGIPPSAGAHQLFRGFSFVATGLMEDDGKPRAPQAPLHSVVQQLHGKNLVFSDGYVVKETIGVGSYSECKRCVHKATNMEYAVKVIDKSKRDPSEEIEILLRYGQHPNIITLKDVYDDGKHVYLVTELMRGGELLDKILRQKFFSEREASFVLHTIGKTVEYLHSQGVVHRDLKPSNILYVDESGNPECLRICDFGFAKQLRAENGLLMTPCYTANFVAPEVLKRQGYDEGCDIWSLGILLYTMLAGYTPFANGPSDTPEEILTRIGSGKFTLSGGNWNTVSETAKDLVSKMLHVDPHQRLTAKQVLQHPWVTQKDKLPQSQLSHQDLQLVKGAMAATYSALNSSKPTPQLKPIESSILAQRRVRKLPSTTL
Sequence of SBK1 (Q52WX2 whole entry): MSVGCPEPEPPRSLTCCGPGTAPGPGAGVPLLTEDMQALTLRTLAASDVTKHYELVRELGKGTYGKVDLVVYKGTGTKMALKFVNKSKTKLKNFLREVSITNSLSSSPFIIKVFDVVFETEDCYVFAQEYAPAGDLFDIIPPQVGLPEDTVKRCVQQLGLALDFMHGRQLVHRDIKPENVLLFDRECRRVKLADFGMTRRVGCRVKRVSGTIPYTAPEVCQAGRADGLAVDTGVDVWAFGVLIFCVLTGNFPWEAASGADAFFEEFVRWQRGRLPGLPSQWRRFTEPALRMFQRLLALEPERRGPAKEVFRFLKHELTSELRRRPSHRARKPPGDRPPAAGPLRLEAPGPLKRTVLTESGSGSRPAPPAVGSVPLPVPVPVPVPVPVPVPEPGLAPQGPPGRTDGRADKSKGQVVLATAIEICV
T6 sequence (P0C264 whole entry): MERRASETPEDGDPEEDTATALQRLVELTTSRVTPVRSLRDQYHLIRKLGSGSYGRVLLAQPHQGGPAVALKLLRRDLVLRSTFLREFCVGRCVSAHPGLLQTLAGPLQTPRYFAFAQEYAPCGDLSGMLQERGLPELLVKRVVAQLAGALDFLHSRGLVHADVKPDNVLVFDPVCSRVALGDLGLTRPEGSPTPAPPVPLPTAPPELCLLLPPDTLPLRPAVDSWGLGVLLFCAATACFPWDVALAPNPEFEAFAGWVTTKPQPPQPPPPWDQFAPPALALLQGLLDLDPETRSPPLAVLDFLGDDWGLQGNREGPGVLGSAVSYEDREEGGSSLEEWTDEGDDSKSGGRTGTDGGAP
Sequence of CDK3 (Q00526 whole entry): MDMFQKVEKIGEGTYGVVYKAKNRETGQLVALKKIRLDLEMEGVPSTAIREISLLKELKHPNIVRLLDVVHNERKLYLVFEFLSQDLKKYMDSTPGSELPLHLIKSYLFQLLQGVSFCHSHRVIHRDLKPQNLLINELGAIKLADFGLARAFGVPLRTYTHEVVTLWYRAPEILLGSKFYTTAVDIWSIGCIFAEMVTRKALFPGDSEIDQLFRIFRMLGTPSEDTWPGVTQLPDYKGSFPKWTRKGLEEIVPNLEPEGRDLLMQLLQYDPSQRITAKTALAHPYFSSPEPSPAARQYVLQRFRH
Sequence of LTK (P29376 whole entry): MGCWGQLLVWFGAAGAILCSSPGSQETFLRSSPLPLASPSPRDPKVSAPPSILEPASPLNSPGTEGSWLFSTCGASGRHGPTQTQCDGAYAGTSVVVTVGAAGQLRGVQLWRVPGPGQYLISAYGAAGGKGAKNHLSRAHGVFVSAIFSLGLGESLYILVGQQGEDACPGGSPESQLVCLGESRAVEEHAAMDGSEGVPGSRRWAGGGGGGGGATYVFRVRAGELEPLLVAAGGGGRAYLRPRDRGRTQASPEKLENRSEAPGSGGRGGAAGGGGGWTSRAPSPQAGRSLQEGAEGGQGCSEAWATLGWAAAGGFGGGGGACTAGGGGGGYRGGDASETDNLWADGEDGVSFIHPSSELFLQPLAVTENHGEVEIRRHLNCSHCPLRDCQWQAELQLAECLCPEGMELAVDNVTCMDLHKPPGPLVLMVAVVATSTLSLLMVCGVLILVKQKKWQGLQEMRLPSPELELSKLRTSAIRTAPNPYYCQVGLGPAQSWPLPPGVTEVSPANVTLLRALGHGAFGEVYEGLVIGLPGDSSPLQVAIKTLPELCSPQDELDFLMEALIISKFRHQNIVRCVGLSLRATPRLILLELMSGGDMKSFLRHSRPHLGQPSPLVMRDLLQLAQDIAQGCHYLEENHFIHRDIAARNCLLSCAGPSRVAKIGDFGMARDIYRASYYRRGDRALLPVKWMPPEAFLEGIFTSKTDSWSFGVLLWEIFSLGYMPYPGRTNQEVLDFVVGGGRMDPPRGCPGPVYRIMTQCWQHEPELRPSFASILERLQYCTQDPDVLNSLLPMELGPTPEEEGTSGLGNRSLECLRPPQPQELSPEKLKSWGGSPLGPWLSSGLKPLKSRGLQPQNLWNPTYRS
Sequence of CSNK1G2 (P78368 whole entry): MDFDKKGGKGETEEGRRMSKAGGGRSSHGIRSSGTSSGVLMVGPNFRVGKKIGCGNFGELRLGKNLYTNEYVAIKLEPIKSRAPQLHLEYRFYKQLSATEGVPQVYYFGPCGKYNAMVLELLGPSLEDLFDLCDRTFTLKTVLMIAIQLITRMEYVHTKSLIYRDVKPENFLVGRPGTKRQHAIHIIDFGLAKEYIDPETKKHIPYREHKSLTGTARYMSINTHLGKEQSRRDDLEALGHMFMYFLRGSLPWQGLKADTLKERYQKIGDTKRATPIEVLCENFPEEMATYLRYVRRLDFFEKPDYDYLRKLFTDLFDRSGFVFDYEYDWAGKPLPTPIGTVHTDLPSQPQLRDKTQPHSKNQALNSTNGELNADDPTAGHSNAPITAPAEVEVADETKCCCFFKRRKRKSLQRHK
Sequence of EGFR(L861Q) (P00533 whole entry L861Q): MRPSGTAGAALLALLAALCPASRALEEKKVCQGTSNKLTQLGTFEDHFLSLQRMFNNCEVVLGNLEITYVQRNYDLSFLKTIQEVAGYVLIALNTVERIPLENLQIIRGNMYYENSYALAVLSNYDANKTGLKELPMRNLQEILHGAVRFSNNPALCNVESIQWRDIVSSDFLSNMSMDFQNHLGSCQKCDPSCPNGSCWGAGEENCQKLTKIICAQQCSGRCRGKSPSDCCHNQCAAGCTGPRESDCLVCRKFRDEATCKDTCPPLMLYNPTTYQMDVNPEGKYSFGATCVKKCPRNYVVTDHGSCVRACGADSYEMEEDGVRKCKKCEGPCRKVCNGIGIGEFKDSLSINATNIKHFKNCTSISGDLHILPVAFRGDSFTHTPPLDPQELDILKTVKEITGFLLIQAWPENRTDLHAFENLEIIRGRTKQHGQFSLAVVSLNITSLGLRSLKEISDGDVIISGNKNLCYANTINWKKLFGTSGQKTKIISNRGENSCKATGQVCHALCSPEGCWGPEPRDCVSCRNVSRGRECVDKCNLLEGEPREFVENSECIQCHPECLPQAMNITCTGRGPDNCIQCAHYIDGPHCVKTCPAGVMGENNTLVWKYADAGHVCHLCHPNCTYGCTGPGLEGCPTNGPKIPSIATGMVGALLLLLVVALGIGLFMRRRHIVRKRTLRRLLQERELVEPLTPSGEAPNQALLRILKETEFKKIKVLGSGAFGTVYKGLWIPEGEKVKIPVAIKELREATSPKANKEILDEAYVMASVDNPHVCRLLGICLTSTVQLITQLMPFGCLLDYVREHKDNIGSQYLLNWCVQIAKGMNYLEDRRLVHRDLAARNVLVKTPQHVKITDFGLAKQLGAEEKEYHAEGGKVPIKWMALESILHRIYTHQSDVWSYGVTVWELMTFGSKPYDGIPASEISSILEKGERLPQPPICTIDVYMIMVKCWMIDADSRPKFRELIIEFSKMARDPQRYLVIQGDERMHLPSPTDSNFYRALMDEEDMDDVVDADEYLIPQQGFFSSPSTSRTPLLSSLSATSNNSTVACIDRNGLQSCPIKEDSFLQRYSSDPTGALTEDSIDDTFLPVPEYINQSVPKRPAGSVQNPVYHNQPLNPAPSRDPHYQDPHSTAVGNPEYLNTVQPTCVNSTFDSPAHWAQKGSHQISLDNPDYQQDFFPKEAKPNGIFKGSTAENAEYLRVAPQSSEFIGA

## C=CC(=O)Nc1cc(-n2c(=O)ccc3cnc4ccc(-n5cccn5)cc4c32)ccc1C [CHMFL-BTK-11]
[1]
  remaining binding at 1 µM: 79%
ABL1-nonphosphorylated
  remaining binding at 1 µM: 74%
AURKA
  remaining binding at 1 µM: 71%
BRAF
  remaining binding at 1 µM: 93%
CDK2
  remaining binding at 1 µM: 100%
CDK3
  remaining binding at 1 µM: 100%
CSNK1A1
  remaining binding at 1 µM: 100%
CSNK1G2
  remaining binding at 1 µM: 100%
DAPK1
  remaining binding at 1 µM: 100%
EGFR(L861Q)
  remaining binding at 1 µM: 71%
GRK1
  remaining binding at 1 µM: 71%
JNK1
  remaining binding at 1 µM: 72%
LATS2
  remaining binding at 1 µM: 100%
LTK
  remaining binding at 1 µM: 100%
MRCKA
  remaining binding at 1 µM: 100%
MYO3B
  remaining binding at 1 µM: 90%
PIK3CA
  remaining binding at 1 µM: 100%
PIK3CA(E545A)
  remaining binding at 1 µM: 76%
PIP5K1C
  remaining binding at 1 µM: 82%
ROCK2
  remaining binding at 1 µM: 97%
[2]
  remaining binding at 1 µM: 82%
SBK1
  remaining binding at 1 µM: 81%
SGK2
  remaining binding at 1 µM: 85%
SgK110
  remaining binding at 1 µM: 90%
TAOK1
  remaining binding at 1 µM: 100%
